Reference: patent US5635519A, “Benzothiazole compounds which are substituted by pyridymethyl” (Eisai Co., Ltd., priority 1991, dated 1997)
Entries after “also recorded” stand apart in the source; their conditions may differ. Where a name gives a salt, the structure may show the parent alone.

What was measured:
[1] = system: LTB4; assay: Suppressing production of leukotriene B4 (LTB4) from rat peritoneal exudation cells; type: cell-based; details: A23187 2 μg/ml, read-out: Production suppressing function IC50, LTB4
Protocol: (§1) After 20 to 24 hours, peritoneal exudation cells were collected from the rats, washed and suspended in the Hank's buffer salt solution (HESS) at a concentration of 5×10^6 /ml. Then 100 μl/well of the obtained cell suspension was […] into a 96-well culture plate (Costar^R) containing 10 μl/well of a sample drug diluted to a given concentration. The plate was incubated at 37° C. for 5 minutes and A23187 (CALBIOCHEM®) was added thereto so as to give a final concentration of 2 μg/ml. After incubating at 37° C. for additional 10 minutes, the plate was transferred on ice and a B[…] solution was added thereto so as to give a final concentration of 100 μM. This plate was centrifuged at 15,000 rpm for 10 minutes and the supernatant was collected. Then the LTB4, TxB2 and PGE2 present in the supernatant were determined by enzyme immunoassay with the use of an EIA Kit manufactured by CAYMAN.

[2] = system: LTB4; assay: Suppressing production and liberation of LTB4 from TNB-colitis rat colon; type: in vivo; details: 100 mg/kg oral, 6 hours, A23187 5 μg/ml
Protocol: (§2) Functions of suppressing production and liberation of LTB4 and TxB2 from TNB (trinitrobenzenesulfonic acid)-colitis rat colon Rat TNB-colitis was induced in accordance with the method reported by Morris et al. [Gastroenterology, 96, 795-803 (1989)]. Namely, each of male F344 rats aged 9 weeks was fasted for 2 days and then etherized. A sound (1.2×80 mm, manufactured by Fuehigami Kikai-ten) was inserted into the rectum of the animal to inject 0.25 ml of a 120 mg/ml solution of TNB (a product of Tokyo Kasei K. K.) in 50% ethanol into the colon cavity. The effects of each compound on the production and liberation of LTB4 and TxB2 from the colon of the TNB-colitis rat were evaluated by using the rat 7 days after the injection of TNB. Namely, each compound (5% suspension in methylcellulose) was orally administered to the rat in a dose of 0.5 ml/100 g body weight. After 6 hours, the animal was deeply deeply etherlzed and subjected to autopsy. Thus the colon tissue was extirpated. The colon was incubated in Tyrode's solution (CALBIOCHEM containing 5 μg/ml of A23187-calcium ionophore) at 37° C. for 20 minutes in accordance with the method of […] et al. [Biochim. Biophys. Acta, 878, 184-193 (1986)]. Then LTB4, TxB2 and PGE2 thus produced and liberated into the medium were determined by radioimmunoassay (RXA).

[3] = system: PGE2; assay: Suppressing production and liberation of PGE2 from TNB-colitis rat colon; type: in vivo; details: 100 mg/kg oral, 6 hours, A23187 5 μg/ml
Protocol: as §2

[4] = system: PGE2; assay: Effect on production of prostaglandin E2 (PGE2) from rat peritoneal exudation cells; type: cell-based; details: A23187 2 μg/ml
Protocol: as §1

[5] = system: TxB2; assay: Suppressing production of thromboxane B2 (TxB2) from rat peritoneal exudation cells; type: cell-based; details: A23187 2 μg/ml, read-out: Production suppressing function IC50, TxB2
Protocol: as §1

[6] = system: TxB2; assay: Suppressing production and liberation of TxB2 from TNB-colitis rat colon; type: in vivo; details: 100 mg/kg oral, 6 hours, A23187 5 μg/ml
Protocol: as §2

[7] = system: TNB-colitis; assay: Therapeutic effects on TNB-colitis (MPO in colon); type: in vivo, rat; details: once a day for 11 days
Protocol: Therapeutic effects on TNB-colitis
Rat TNB-colitis was induced in accordance with the method reported by Morris et al. [Gastroenterology, 96, 795-808 (1989)]. Namely, each of male F344 rats aged 9 weeks was fasted for 2 days and then etherized. A sound (1.2×80 mm, manufactured by Fuchigami Kikai-ten) was inserted into the rectum of the animal to inject 0.25 ml of a 120 mg/ml solution of TNB (a product of Tokyo Kasei K. K.) in 50% ethanol into the colon cavity. 3 days after the injection of TNB, each compound (5% suspension in methylcellulose) was orally administered once a day for 11 days. 14 days after the injection of TNB, the animal was subjected to autopsy and the colon was extirpated. The extent of damage to the colon was evaluated by determining MPO (myeloperoxidase) present therein.
The therapeutic ratio was calculated according to the following equation:
therapeutic ratio=(5% methylcellulose group-ethanol group)-(invention
compound group-ethanol group).

[8] = system: rats; assay: Toxicity test, 28 days repeated administration; type: in vivo, rat; details: 200 mg/kg once a day for 28 days

IC50 [1] [nM] | IC50 [5] [nM] | Structure (SMILES) | Suppression ratio (%), LTB4 [2] [%] | Suppression ratio (%), PGE2 [3] [%] | Production suppressing function, PGE2 (in words) [4] | Suppression ratio (%), TxB2 [6] [%] | Therapeutic ratio (%) ([7]; 100 mg/kg/day oral) | abnormality caused by the administration [8] | Production suppressing function, PGE2 (in words) ([4]; dihydrochloride) | Therapeutic ratio (%) ([7]; 10 mg/kg/day oral)
90 | 5460 | COc1cc2nc(NCc3cccnc3)sc2c(OC)c1O [Example 1, 6-Hydroxy-5,7-dimethoxy-2-(3-pyridylmethyl)aminobenzothiazole] | 19 | 10 | enhanced at 1-10 μM; also recorded: suppressed at 100 μM | 55 |  |  |  | 
380 | 730 | CNc1nc2c(C(OC(C)=O)c3cccnc3)c(C)c(O)c(C)c2s1 (centres unmarked) [Example 9, {4-(6-Hydroxy-5,7-dimethyl-2-methylamino)benzothiazoyl}-(3-pyridyl)methyl acetate] |  |  | enhanced at 0.1-100 μM |  |  |  |  | 
 |  | CNc1nc2c(Cc3cccnc3)c(C)c(O)c(C)c2s1 [Example 10, 6-Hydroxy-5,7-dimethyl-2-methylamino-4-(3-pyridylmethyl)benzothiazole] |  |  | enhanced at 0.1-10 μM |  |  | no abnormality caused by the administration of the drug was observed |  | 
< 100 | 90 | CCCNc1nc2c(Cc3cccnc3)c(C)c(O)c(C)c2s1.Cl.Cl [Example 12, 6-Hydroxy-5,7-dimethyl-2-propylamino-4-(3-pyridylmethyl)benzothiazole dihydrochloride] |  |  |  |  |  |  | enhanced at 0.1-10 μM; also recorded: suppressed at 100 μM | 
250 | 5310 | Cc1c(O)c(Cc2cccnc2)c2sc(N)nc2c1C.Cl.Cl [Example 15, 2-Amino-6-hydroxy-4,5-dimethyl-7-(3-pyridylmethyl)benzothiazole dihydrochloride] |  |  | enhanced at 0.1-100 μM |  |  |  |  | 
190 | 2 | Cc1c(O)c(C)c2sc(N)nc2c1Cc1cccnc1 [Example 18, 2-Amino-6-hydroxy-5,7-dimethyl-4-(3-pyridylmethyl)benzothiazole dihydrochloride] |  |  |  |  |  |  |  | 
170 | 110 | COc1c(O)c(C)c2sc(N)nc2c1Cc1cccnc1 [Example 20, 2-Amino-6-hydroxy-5-methoxy-7-methyl-4-(3-pyridylmethyl)benzothiazole dihydrochlorlde] |  |  | enhanced at 0.1-100 μM |  |  |  |  | 
170 | 1280 | CNc1nc2c(Cc3cccnc3)c(OC)c(O)c(C)c2s1 [Example 21, 6-Hydroxy-5-methoxy-7-methyl-2-methylamino-4-(3-pyridylmethyl)benzothiazoledihydrochloride] |  |  |  |  |  |  |  | 
150 | 180 | CCc1c(O)c(OC)c(Cc2cccnc2)c2nc(N)sc12 [Example 22, 2-Amino-7-ethyl-6-hydroxy-5-methoxy-4-(3-pyridylmethyl)benzothiazole dihydrochloride] |  |  |  |  |  |  |  | 
< 100 | 330 | CCc1c(O)c(OC)c(Cc2cccnc2)c2nc(NC)sc12.Cl.Cl [Example 23, 7-Ethyl-6-hydroxy-5-methoxy-2-methylamino-4-(3-pyridylmethyl)benzothiazole dihydrochloride] |  |  |  |  |  |  | enhanced at 0.1-10 μM; also recorded: suppressed at 100 μM | 
 |  | C[C@]12C=CC(=O)C=C1CC[C@@H]1[C@@H]2[C@@H](O)C[C@@]2(C)[C@H]1CC[C@]2(O)C(=O)CO [prednisolone, reference compound] |  |  |  |  |  |  |  | 60

Structure (SMILES) | IC50 [1] [nM] | IC50 [5] [nM] | Suppression ratio (%), LTB4 [2] [%] | Suppression ratio (%), PGE2 [3] [%] | Production suppressing function, PGE2 (in words) [4] | Suppression ratio (%), TxB2 [6] [%] | Therapeutic ratio (%) ([7]; 100 mg/kg/day oral) | abnormality caused by the administration [8] | Production suppressing function, PGE2 (in words) ([4]; dihydrochloride) | Therapeutic ratio (%) ([7]; 10 mg/kg/day oral)
Cc1c(O)c(C)c2sc(NCc3cccnc3)nc2c1C [Example 4, 6-Hydroxy-4,5,7-trimethyl-2-(3-pyridylmethyl)aminobenzothiazole] | < 100 | 1950 | 93 | 30 | enhanced at 0.1-1 μM; also recorded: suppressed at 10 μM or above | 72 | 31 |  |  | 
Cc1cc(O)c(C)c2sc(NCc3cccnc3)nc12 [Example 5, 6-Hydroxy-4,7-dimethyl-2-(3-pyridylmethyl)aminobenzothiazole] | < 100 | 4390 | 94 | 30 | enhanced at 0.1-10 μM; also recorded: suppressed at 100 μM | 36 | 53 |  |  | 
CCNc1nc2c(Cc3cccnc3)c(C)c(O)c(C)c2s1.Cl.Cl [Example 11, 2-Ethylamino-6-hydroxy-5,7-dimethyl-4-(3-pyridylmethyl)benzothiazole dihydrochloride] | < 100 | 100 | 94 | 0 |  | 85 | 41 |  | enhanced at 0.1-10 μM; also recorded: suppressed at 100 μM | 
CCNc1nc2c(C)c(Cc3cccnc3)c(O)c(C)c2s1 [Example 14, 2-Ethylamino-6-hydroxy-4,7-dimethyl-5-(3-pyridylmethyl)benzothiazole] | 230 | 650 | 83 | 8 | enhanced at 0.1-1 μM; also recorded: suppressed at 100 μM | 67 | 32 |  |  | 
CCNc1nc2c(C)c(C)c(O)c(Cc3cccnc3)c2s1 [Example 17, 2-Ethylamino-6-hydroxy-4,5-dimethyl-7-(3-Pyridylmethyl)benzothiazole] | < 100 | 2000 | 89 | 41 | enhanced at 1 μM; also recorded: suppressed at 100 μM | 53 | 40 |  |  | 
